Results: PubChem BioAssay (NCI)
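Five compound concentrations were applied to cells in 96-well plates for 48 hours; endpoints were derived by simple linear interpolation of the resulting dose-response curve. GI50 marks 50% less growth. TGI: total growth inhibition.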

Assays:
Assay in all cases: NCI anticancer screen, dose series, 48 h
NCI-H23 lung = tested on: NCI-H23 lung
NCI-H460 lung = tested on: NCI-H460 lung
NCI-H522 lung = tested on: NCI-H522 lung
NCI/ADR-RES ovarian = tested on: NCI/ADR-RES ovarian
OVCAR-3 ovarian = tested on: OVCAR-3 ovarian
OVCAR-4 ovarian = tested on: OVCAR-4 ovarian
OVCAR-5 ovarian = tested on: OVCAR-5 ovarian
OVCAR-8 ovarian = tested on: OVCAR-8 ovarian
PC-3 prostate = tested on: PC-3 prostate
RPMI-8226 leukemia = tested on: RPMI-8226 leukemia
RXF 393 renal = tested on: RXF 393 renal
SF-268 CNS = tested on: SF-268 CNS
SF-295 CNS = tested on: SF-295 CNS
SF-539 CNS = tested on: SF-539 CNS
SK-MEL-2 melanoma = tested on: SK-MEL-2 melanoma
SK-MEL-28 melanoma = tested on: SK-MEL-28 melanoma
SK-MEL-5 melanoma = tested on: SK-MEL-5 melanoma
SK-OV-3 ovarian = tested on: SK-OV-3 ovarian
SN12C renal = tested on: SN12C renal
SNB-19 CNS = tested on: SNB-19 CNS
SNB-75 CNS = tested on: SNB-75 CNS
SR leukemia = tested on: SR leukemia
SW-620 colon = tested on: SW-620 colon
T-47D breast = tested on: T-47D breast
TK-10 renal = tested on: TK-10 renal
U251 CNS = tested on: U251 CNS
UACC-257 melanoma = tested on: UACC-257 melanoma
UACC-62 melanoma = tested on: UACC-62 melanoma
UO-31 renal = tested on: UO-31 renal

## CCN(CC)CC(O)CNc1c2ccc(Cl)cc2nc2ccc(OC)cc12 (stereo not drawn)
NCI-H23 lung
  GI50: 852 nM
  TGI: 2530 nM
NCI-H460 lung
  GI50: 327 nM
  TGI: 975 nM
NCI-H522 lung
  GI50: 518 nM
  TGI: 1840 nM
NCI/ADR-RES ovarian
  GI50: 933 nM
  TGI: 3310 nM
OVCAR-3 ovarian
  GI50: 1710 nM
  TGI: 4260 nM
OVCAR-4 ovarian
  GI50: 704 nM
  TGI: 2250 nM
OVCAR-5 ovarian
  GI50: 1660 nM
  TGI: 5180 nM
OVCAR-8 ovarian
  GI50: 521 nM
  TGI: 2250 nM
PC-3 prostate
  GI50: 355 nM
  TGI: 1620 nM
RPMI-8226 leukemia
  GI50: 510 nM
  TGI: 1870 nM
RXF 393 renal
  GI50: 657 nM
  TGI: 1840 nM
SF-268 CNS
  GI50: 890 nM
  TGI: 2970 nM
SF-295 CNS
  GI50: 649 nM
  TGI: 2110 nM
SF-539 CNS
  GI50: 1430 nM
  TGI: 3050 nM
SK-MEL-2 melanoma
  GI50: 1270 nM
  TGI: 2850 nM
SK-MEL-28 melanoma
  GI50: 1720 nM
  TGI: 3100 nM
SK-MEL-5 melanoma
  GI50: 1580 nM
  TGI: 2920 nM
SK-OV-3 ovarian
  GI50: 1020 nM
  TGI: 3640 nM
SN12C renal
  GI50: 540 nM
  TGI: 2680 nM
SNB-19 CNS
  GI50: 632 nM
  TGI: 2700 nM
SNB-75 CNS
  GI50: 970 nM
  TGI: 2380 nM
SR leukemia
  GI50: 338 nM
  TGI: 1070 nM
SW-620 colon
  GI50: 393 nM
  TGI: 1650 nM
T-47D breast
  GI50: 1180 nM
  TGI: 2930 nM
TK-10 renal
  GI50: 837 nM
  TGI: 3180 nM
U251 CNS
  GI50: 574 nM
  TGI: 2320 nM
UACC-257 melanoma
  GI50: 1750 nM
  TGI: 3270 nM
UACC-62 melanoma
  GI50: 1780 nM
  TGI: 3310 nM
UO-31 renal
  GI50: 929 nM
  TGI: 3410 nM
